Earlier results as cited in patent US20120245171A1, “BENZPYRAZOLE DERIVATIVES AS INHIBITORS OF PI3 KINASES” (GLAXO GROUP LIMITED, priority 2009, published 2012).
pIC50: −log10 of the molar value. Like-named read-outs stand apart in the source and are kept apart here.

What was measured:
CK2 protein kinase = CK2 protein kinase (Homo sapiens, UniProt P68400)
neutrophils [1] = settings: for superoxide release: neutrophils
Class I PI3-kinases = settings: each of the Class I PI3-kinases
neutrophils [2] = settings: treatment of neutrophils; Thelen et al. 1994

Sequence of CK2 protein kinase (P68400 whole entry): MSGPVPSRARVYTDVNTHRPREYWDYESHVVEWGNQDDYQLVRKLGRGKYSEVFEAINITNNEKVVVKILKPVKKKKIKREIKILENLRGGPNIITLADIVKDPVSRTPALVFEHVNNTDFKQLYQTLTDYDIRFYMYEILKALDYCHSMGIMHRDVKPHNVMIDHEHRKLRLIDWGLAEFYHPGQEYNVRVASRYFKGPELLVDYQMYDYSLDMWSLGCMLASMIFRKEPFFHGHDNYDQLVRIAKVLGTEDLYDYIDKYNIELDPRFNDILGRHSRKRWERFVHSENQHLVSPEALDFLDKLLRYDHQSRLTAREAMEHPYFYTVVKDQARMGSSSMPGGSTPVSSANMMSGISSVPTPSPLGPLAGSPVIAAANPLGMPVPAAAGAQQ

O=c1cc(N2CCOCC2)oc2c(-c3ccccc3)cccc12 [LY294002]
pIC50 (CK2 protein kinase): 5.00 to 5.30
neutrophil migration (neutrophils [1]): block
superoxide release (neutrophils [1]): block
pIC50 (Class I PI3-kinases; Fruman et al. 1998, read-out: IC50 against each of these PI3-kinases): 4.70 to 4.82

COC[C@H]1OC(=O)c2coc3c2[C@@]1(C)C1=C(C3=O)[C@@H]2CCC(=O)[C@@]2(C)C[C@H]1OC(C)=O [wortmannin]
neutrophil migration (neutrophils [1]): block
superoxide release (neutrophils [1]): block
fMLP-induced respiratory burst response (neutrophils [2]): prevents
pIC50 (Class I PI3-kinases; read-out: IC50 against each of the various Class I PI3-kinases): 8.00 to 9.00
